ChEMBL document CHEMBL1201862, “PubChem BioAssay data set” (2004)
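Method: 48-hour compound exposure of cells in 96-well plates, five concentrations, linear interpolation of endpoints. GI50 marks 50% less growth.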 Active and inactive are the calls of the source. Rule as the data show it: active = GI50 up to about 1.1 µM and inactive = higher.

What was measured:
Experiment in all cases: inhibition of tumour cell growth, NCI panel, 48 h
[1] = tested on: U-251
[2] = tested on: K562
[3] = tested on: SNB-19
[4] = tested on: CCRF-CEM
[5] = tested on: SW-620
[6] = tested on: SR
[7] = tested on: SF-295
[8] = tested on: HCT-116
[9] = tested on: HCC 2998
[10] = tested on: NCI-H226
[11] = tested on: SK-MEL-2
[12] = tested on: SF-268
[13] = tested on: OVCAR-3
[14] = tested on: SN12C
[15] = tested on: OVCAR-5
[16] = tested on: MDA-N
[17] = tested on: DU-145
[18] = tested on: CAKI-1
[19] = tested on: UACC-62
[20] = tested on: OVCAR-8
[21] = tested on: ACHN
[22] = tested on: A549
[23] = tested on: SK-MEL-28
[24] = tested on: HT-29
[25] = tested on: RPMI-8226
[26] = tested on: HL-60
[27] = tested on: T47D
[28] = tested on: OVCAR-4
[29] = tested on: Hs-578T
[30] = tested on: COLO 205
[31] = tested on: MOLT-4
[32] = tested on: Malme-3M
[33] = tested on: M14
[34] = tested on: MDA-MB-435
[35] = tested on: MCF7
[36] = tested on: NCI-H23
[37] = tested on: UO-31
[38] = tested on: IGROV-1
[39] = tested on: HCT-15
[40] = tested on: SK-MEL-5
[41] = tested on: KM12
[42] = tested on: SF-539
[43] = tested on: NCI-H522
[44] = tested on: SK-OV-3
[45] = tested on: SNB-75
[46] = tested on: NCI/ADR-RES
[47] = tested on: HOP-92
[48] = tested on: UACC-257
[49] = tested on: TK-10
[50] = tested on: MDA-MB-231
[51] = tested on: EKVX
[52] = tested on: 786-0
[53] = tested on: NCI-H460
[54] = tested on: PC-3
[55] = tested on: BT-549
[56] = tested on: LOX IMVI
[57] = tested on: HOP-62
[58] = tested on: RXF 393
[59] = tested on: A498

Measured: GI50

O=[N+]([O-])c1c(O)c2nonc2c2nn(-c3ccccc3)nc12
> 100 µM: [39]
inactive: [1] > 100 µM | [2] > 100 µM | [3] > 100 µM | [4] > 100 µM | [5] > 100 µM | [6] > 100 µM | [7] > 100 µM | [8] > 100 µM | [9] > 100 µM | [10] 6.85 µM | [11] > 100 µM | [12] > 100 µM | [13] > 100 µM | [14] > 100 µM | [15] > 100 µM | [16] > 100 µM | [17] > 100 µM | [18] > 100 µM | [19] > 100 µM | [20] > 100 µM | [21] > 100 µM | [22] > 100 µM | [23] > 100 µM | [24] > 100 µM | [25] > 100 µM | [26] > 100 µM | [27] > 100 µM | [28] 83.4 µM | [29] 65.5 µM | [30] > 100 µM | [31] > 100 µM | [32] > 100 µM | [33] > 100 µM | [34] > 100 µM | [35] 20.5 µM | [36] > 100 µM | [37] 43.2 µM | [38] > 100 µM | [40] > 100 µM | [41] > 100 µM | [42] > 100 µM | [43] 40 µM | [44] > 100 µM | [45] > 100 µM | [46] > 100 µM | [47] > 100 µM | [48] > 100 µM | [49] 55.3 µM | [50] > 10 µM | [51] > 100 µM | [52] > 100 µM | [53] > 100 µM | [54] > 100 µM | [55] > 100 µM | [56] > 100 µM | [57] > 100 µM

Brc1ccc(C2C3CSc4ccccc4C3=NN2c2ccccc2)cc1 (centres undefined)
inactive: [1] 54.2 µM | [2] 77.4 µM | [3] > 100 µM | [4] 34.8 µM | [5] 34.7 µM | [6] 44.2 µM | [8] > 100 µM | [10] > 100 µM | [11] > 100 µM | [12] 70.1 µM | [13] > 100 µM | [14] > 100 µM | [16] > 100 µM | [17] > 100 µM | [18] 41 µM | [19] 75.7 µM | [20] 62.1 µM | [22] 56.9 µM | [23] 67.5 µM | [24] 78.2 µM | [25] 27.3 µM | [26] 42.9 µM | [27] 14.3 µM | [28] 7.62 µM | [29] > 100 µM | [30] 97.1 µM | [58] > 100 µM | [31] 43 µM | [32] > 100 µM | [33] > 100 µM | [59] > 100 µM | [34] > 100 µM | [35] 14.5 µM | [36] > 100 µM | [37] 94.8 µM | [38] 74.8 µM | [40] 31.8 µM | [41] 44.5 µM | [42] 59 µM | [44] 82.8 µM | [45] 69 µM | [46] 77.6 µM | [47] > 100 µM | [48] 4.07 µM | [49] > 100 µM | [50] > 100 µM | [52] > 100 µM | [53] 32.8 µM | [54] 43.8 µM | [55] > 100 µM | [56] 77.8 µM | [57] > 100 µM
39.6 µM: [39]

Cc1sc2nc3n(sc4nc5sc(C)c(C)c5c(=O)n43)c(=O)c2c1C
active: [27] 0.935 µM
> 100 µM: [39]
inactive: [1] > 100 µM | [2] 93.8 µM | [3] > 100 µM | [4] 16.4 µM | [5] 45.9 µM | [6] 75.5 µM | [7] > 100 µM | [8] > 100 µM | [9] > 100 µM | [10] > 100 µM | [11] > 100 µM | [12] > 100 µM | [13] > 100 µM | [14] > 100 µM | [15] > 100 µM | [16] > 100 µM | [17] > 100 µM | [18] 66.1 µM | [19] 33.2 µM | [20] > 100 µM | [22] > 100 µM | [23] > 100 µM | [24] > 100 µM | [25] > 100 µM | [26] 40.3 µM | [28] 63.8 µM | [29] > 100 µM | [30] > 100 µM | [31] 23 µM | [33] > 100 µM | [34] > 100 µM | [35] 82.4 µM | [36] > 100 µM | [37] > 100 µM | [38] > 100 µM | [40] > 100 µM | [41] > 100 µM | [42] > 100 µM | [43] 16.4 µM | [44] > 100 µM | [45] 4.81 µM | [46] > 100 µM | [47] > 100 µM | [48] > 100 µM | [49] > 100 µM | [50] 80.5 µM | [51] 30.3 µM | [52] > 100 µM | [53] > 100 µM | [54] > 100 µM | [55] 70.5 µM | [56] > 100 µM
